Source: ChEMBL document CHEMBL1122420, “Parasympatholytic (anticholinergic) esters of the isomeric 2-tropanols. 2. Non-glycolates” (J Med Chem, 1983)

Key:
Mus musculus = test: Induction of mydriasis in mice following s.c. administration.; assay type: functional; details: sc
[1] = LD50 in mice following i.v. administration.; assay type: organism-based; details: mouse, in vivo, iv

SMILES	ED50 (Mus musculus) [mg/kg]	LD50 [1] [mg/kg]
CN1C2CCC1[C@H](OC(=O)N1c3ccccc3Sc3cccnc31)CC2 (single isomer, unassigned; (+))	5.6	32
CN1C2CCC1[C@H](OC(=O)C(CO)c1ccccc1)CC2 (single isomer, unassigned; (+))	0.1	50
CCCC(C(=O)O[C@@H]1CCC2CCC1N2C)(c1ccccc1)c1ccccc1 (single isomer, unassigned; (+))	> 10	18
CN1C2CCC1[C@H](OC(=O)C1c3ccccc3CCc3ccccc31)CC2 (single isomer, unassigned; (+))	5.6	32
COc1cc(C(=O)O[C@@H]2CCC3CCC2N3C)cc(OC)c1OC (single isomer, unassigned; (+))	32	56
CCCOC(C(=O)O[C@@H]1CCC2CCC1N2C)(c1ccccc1)c1ccccc1 (single isomer, unassigned; (+))	0.94	22
CN1C2CCC1[C@H](OC(=O)C(F)(c1ccccc1)c1ccccc1)CC2 (single isomer, unassigned; (+))	0.25	36
CN1C2CCC1[C@H](OC(=O)C13CC4CC(CC(C4)C1)C3)CC2 (single isomer, unassigned; (+))	> 10	32
CN1C2CCC1[C@H](OC(=O)c1cc(=O)c3ccccc3o1)CC2 (single isomer, unassigned; (+))	> 10	100
CN1C2CCC1[C@H](OC(=O)CC(O)(c1ccccc1)c1ccccc1)CC2 (single isomer, unassigned; (+))	> 10	18
CN1C2CCC1[C@H](OC(=O)C(Cl)(c1ccccc1)c1ccccc1)CC2.Cl (single isomer, unassigned; (+))	0.03	22
CN1C2CCC1[C@H](OC(=O)C(OCc1ccccc1)(c1ccccc1)c1ccccc1)CC2.Cl (single isomer, unassigned; (+))	5.6	56
CN1C2CCC1[C@@H](OC(=O)C1c3ccccc3CCc3ccccc31)CC2 (single isomer, unassigned; (-))	> 10	18
COc1cc(C(=O)O[C@H]2CCC3CCC2N3C)cc(OC)c1OC (single isomer, unassigned; (-))	> 10	18
CN1[C@@H]2CC[C@H]1C[C@@H](OC(=O)C(CO)c1ccccc1)C2 (stereo not given in full) [ATROPINE]	0.061	
CN1[C@@H]2C[C@@H](OC(=O)[C@H](CO)c3ccccc3)C[C@H]1[C@@H]1O[C@@H]12 [SCOPOLAMINE]	0.012	
